Patent publication US7125671B2, “Nucleic acid amplification with terminal-phosphate labeled nucleotides” (GE Healthcare Bio-Sciences Corp., priority 2003, dated 2006)

How the values were obtained:
[1] = Non-enzymatic hydrolysis of dT4P-DDAO in the presence of MnCl2, effect of ammonium sulfate and related salts (FIG. 4); assay type: physicochemical; details: 10 mM salt; 0.5 mM MnCl2; 25 mM Tris.HCl pH 9.0; 95° C. for 60 minutes
Protocol: Four μl of each reaction mix was mixed with 16 μl of BAP solution in Hepes (0.005 units BAP/μl) and incubated at 37° C. for 60 minutes. Samples were read on Tecan ultra plate reader. Un heated sample and unheated sample without MnCl2 were used as controls. Raw fluorescence counts were converted into % degradation by using fluorescence counts from a Snake Venom phosphodiesterase hydrolyzed sample as 100% degraded sample.

[2] = Non-enzymatic hydrolysis of dT4P-DDAO in the presence of MnCl2, effect of other salts (FIG. 5); details: 10 or 25 mM salt; 0.5 mM MnCl2; 25 mM Hepes pH 8.1; 95° C. for 60 minutes
Protocol: Twenty μl of 25 mM Hepes, pH 8.1, containing 0.5 mM MnCl2, 1 μm dT4P-DDAO and 10 or 25 mM inorganic or organic salt (see FIG. 5) was heated at 95° C. for 60 minutes. 4 μl of each sample was treated with BAP as described above and read on Tecan ultra plate reader. An unheated sample with MnCl2 (water lane) and a heated sample without Hepes and MnCl2 were used as controls. Fluorescence counts were converted into % degradation as described above.

T. ba polymerase = experiment: PCR amplification with terminal-phosphate labeled nucleoside polyphosphates in the presence of stabilizing additives (FIG. 6); assay type: biochemical, Thermococcus barosii; details: dT4P-Me, dC4P-Me, 0.25 mM MnCl2, M13 DNA, 35 cycles
Protocol: Polymerase chain reaction (PCR) mixtures (20 μl) contained 25 mM Hepes (pH 8.1), 10 mM KCl, 2 mM MgSO4, 0.25 mM MnCl2, 1 mg/ml bovine serum albumin, 0.01% (v/v) Tween-20 and 10–25 mM salt as shown in FIG. 6. Each sample also contained 20 μm each of dA4P-Me, dT4P-Me, dC4P-Me, 200 μm dG4P-FlEt, 0.006 units/μl BAP, 2 units of T. ba polymerase, 0.1 μm −40 M13 forward primer, 0.1 μm −28 M13 reverse primer and 0.2 ng M13 DNA. In addition to the terminal-phosphate labeled nucleotide, terminal methyl-blocked dNTP's were used instead of normal dNTP's to prevent degradation by BAP (phosphatase). Latter is required for signal generation from dye-polyphosphate after the nucleotide is incorporated into DNA by polymerase. Reactions were carried out for 35 thermal cycles of 90° C., 30 sec.; 55° C., 30 sec.; and 65° C., 300 sec. Reaction products were loaded onto 1.6% agarose gels. The gels were stained with SYBR Gold (Molecular Probes) according to the manufacturers' instructions and scanned at 532 nm using a Typhoon fluorescence scanner (Amersham Biosciences). Gel size markers were a 100 bp ladder (Amersham Biosciences).

[3] = molecular target: pfu (with A486Y mutation) polymerase (Pyrococcus furiosus, UniProt P61875, A486Y); experiment: Quantitative PCR with terminal-phosphate labeled nucleoside polyphosphates on ABI 7900; assay type: biochemical; details: 200 μm dG4P-FlEt with dA4P-Me, dT4P-Me, dC4P-Me; BAP; 50 cycles; FIG. 7
Protocol: Polymerase chain reaction (PCR) mixtures (20 μl) contained 25 mM Tris.HCl (pH 9.0), 10 mM KCl, 2 mM MgSO4, 0.25 mM MnCl2, 1 mg/ml bovine serum albumin and 0.01% (v/v) Tween-20. Each sample also contained 20 μm each of dA4P-Me, dT4P-Me, dC4P-Me, 200 μm dG4P-FlEt, 0.005 units/μl BAP, 2 units of pfu (with A486Y mutation) polymerase, 0.1 μm −40 M13 forward primer, 0.1 μM −28 M13 reverse primer and 1.2×10^6–1.2×10^9 copies of M13 DNA. In addition to the terminal-phosphate labeled nucleotide, the remaining nucleotides were blocked with a methyl group on the terminal phosphate to prevent degradation by BAP. Reactions were carried out for 50 thermal cycles of 90° C., 30 sec.; 55° C., 30 sec.; and 65° C., 300 sec on ABI 7900 instrument.
Reaction products were also loaded onto 1.6% agarose gels. The gels were stained with SYBR Gold (Molecular Probes) according to the manufacturers' instructions and scanned at 532 nm using a Typhoon fluorescence scanner (Amersham Biosciences) to show the formation of PCR product (FIG. 8). Gel size markers were a 100 bp ladder (Amersham Biosciences).

Chain of pfu (with A486Y mutation) polymerase (P61875 whole entry A486Y): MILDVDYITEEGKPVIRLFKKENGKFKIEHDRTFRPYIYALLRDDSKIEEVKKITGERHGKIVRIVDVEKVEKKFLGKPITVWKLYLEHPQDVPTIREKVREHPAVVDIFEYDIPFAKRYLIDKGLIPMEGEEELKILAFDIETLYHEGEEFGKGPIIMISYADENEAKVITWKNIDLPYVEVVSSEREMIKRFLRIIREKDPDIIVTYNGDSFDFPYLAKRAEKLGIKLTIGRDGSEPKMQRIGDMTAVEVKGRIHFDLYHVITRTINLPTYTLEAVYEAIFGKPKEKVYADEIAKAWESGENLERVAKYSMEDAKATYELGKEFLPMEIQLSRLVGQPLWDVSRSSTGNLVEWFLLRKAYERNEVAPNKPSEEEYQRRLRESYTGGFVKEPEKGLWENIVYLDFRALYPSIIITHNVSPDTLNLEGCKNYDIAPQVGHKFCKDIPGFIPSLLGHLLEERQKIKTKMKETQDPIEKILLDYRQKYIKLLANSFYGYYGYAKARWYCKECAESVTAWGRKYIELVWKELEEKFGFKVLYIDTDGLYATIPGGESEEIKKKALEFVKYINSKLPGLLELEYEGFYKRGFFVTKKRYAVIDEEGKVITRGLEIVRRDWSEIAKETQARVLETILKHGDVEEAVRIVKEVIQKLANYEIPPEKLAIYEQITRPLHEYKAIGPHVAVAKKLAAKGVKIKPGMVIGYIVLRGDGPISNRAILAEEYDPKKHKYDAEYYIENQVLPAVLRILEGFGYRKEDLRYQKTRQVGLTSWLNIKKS

Row | Compound | stabilization of dT4P-DDAO (% degradation) [1] | stabilization of dT4P-DDAO (% degradation) [2] | PCR product formation in the presence of the additive (T. ba polymerase; 10–25 mM salt, dA4P-Me, dG4P-FlEt) | PCR product formation (T. ba polymerase; absence of any stabilizer, with dA4P-Me) | cycle count at fluorescence threshold plotted against input M13 DNA copies [3]
1 | N.N.O=S(=O)(O)O [ammonium sulfate] | clearly stabilizes | stabilize the nucleotide | PCR product was separated | – | –
2 | CCOc1ccc2c(c1)Oc1cc(OP(=O)(O)OP(=O)(O)OP(=O)(O)OP(=O)(O)OC[C@H]3O[C@@H](n4cnc5c(=O)[nH]c(N)nc54)C[C@@H]3O)ccc1C21OC(=O)c2ccccc21 (some centres unmarked) [dG4P-FlEt, 2′-Deoxyguanosine-5′-(δ-3′-(6′-ethoxyfluorescein)) tetraphosphate] | – | – | – | PCR product was separated | straight line
